Measured values: publication PMC9786103, “Potent and Selective Inhibition of CYP1A2 Enzyme by Obtusifolin and Its Chemopreventive Effects” (Pharmaceutics, 2022)

Assays:
rCYP1A1 = biological target: T1, rCYP1A1 (Homo sapiens, UniProt P04798); assay: Recombinant CYP1A1 inhibition with 9-cis-retinal as substrate; format: biochemical; settings: substrate 9-cis-retinal
T1 construct: purchased SPMED (Busan, Republic of Korea)
T1 sequence (P04798 1-512): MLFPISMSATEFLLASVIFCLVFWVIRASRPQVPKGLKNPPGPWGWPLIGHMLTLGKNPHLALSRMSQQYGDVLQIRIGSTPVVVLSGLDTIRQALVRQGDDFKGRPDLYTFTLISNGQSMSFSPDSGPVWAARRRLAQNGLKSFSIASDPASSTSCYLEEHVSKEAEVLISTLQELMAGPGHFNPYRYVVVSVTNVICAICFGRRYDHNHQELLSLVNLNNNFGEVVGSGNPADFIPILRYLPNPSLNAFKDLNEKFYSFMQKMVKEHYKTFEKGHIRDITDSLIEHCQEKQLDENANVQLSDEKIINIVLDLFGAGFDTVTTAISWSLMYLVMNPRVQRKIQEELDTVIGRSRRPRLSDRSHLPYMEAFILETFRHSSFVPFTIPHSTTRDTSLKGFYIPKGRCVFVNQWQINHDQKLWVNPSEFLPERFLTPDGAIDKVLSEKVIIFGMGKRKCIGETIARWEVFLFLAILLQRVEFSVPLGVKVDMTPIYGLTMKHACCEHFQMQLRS
Excerpt: Table 5 Inhibitory effects (IC50) of obtusifolin against recombinant CYP1A1 and CYP1A2. | column: IC50 (μM)

CYP2E1 = biological target: T2, CYP2E1 (Homo sapiens, UniProt P05181); assay: biochemical; format: biochemical
T2 construct: Mixtures of pooled HLM, P450 substrates, and obtusifolin; tissue XenoTech XTreme 200; host or cells: pooled human liver microsomes
T2 sequence (P05181 whole entry): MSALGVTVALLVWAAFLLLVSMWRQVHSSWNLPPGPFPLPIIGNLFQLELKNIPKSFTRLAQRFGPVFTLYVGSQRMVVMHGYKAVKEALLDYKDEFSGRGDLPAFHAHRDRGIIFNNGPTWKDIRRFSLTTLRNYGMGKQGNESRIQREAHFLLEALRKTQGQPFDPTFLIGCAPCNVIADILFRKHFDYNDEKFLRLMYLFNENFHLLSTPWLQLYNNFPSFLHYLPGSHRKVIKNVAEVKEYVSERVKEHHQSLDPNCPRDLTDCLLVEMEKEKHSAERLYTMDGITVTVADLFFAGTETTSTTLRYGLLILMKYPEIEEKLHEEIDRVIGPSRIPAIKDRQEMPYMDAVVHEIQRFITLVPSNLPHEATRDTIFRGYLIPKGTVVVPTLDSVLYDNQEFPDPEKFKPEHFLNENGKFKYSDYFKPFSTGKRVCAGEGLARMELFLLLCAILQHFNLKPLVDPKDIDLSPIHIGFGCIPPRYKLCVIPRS
Method: The following P450 isoform-specific substrates were used: coumarin (CYP2A6); bupropion (CYP2B6); amodiaquine (CYP2C8); tolbutamide (CYP2C9); omeprazole (CYP2C19); dextromethorphan (CYP2D6); chlorzoxazone (CYP2E1); and midazolam (CYP3A). […] NGS was introduced to start the reaction, which was followed by an additional incubation (15 min). Following reaction termination, aliquots of the supernatants were analyzed with LC-MS/MS.
Reverse phase column (Kinetex XB-C18, 100 × 2.10 mm; Phenomenex, Torrance, CA, USA) and triple-quadrupole mass spectrometer (LCMS 8060, Shimadzu, Kyoto, Japan) with an ultra high-performance LC system (Nexera X2, Shimadzu) analyze all the metabolites. […] For each metabolite, quantitation was carried out in selected reaction monitoring (SRM) mode using the following precursor-to-product ion transition: m/z 152 > 110 for acetaminophen (CYP1A2), m/z 214 > 186 for resorufin (CYP1A1 and CYP1A2), m/z 163 > 107 for 7-hydroxycoumarin (CYP2A6), m/z 256 > 238 for 6-hydroxybupropion (CYP2B6), m/z 328 > 283 for N-desethylamodiaquine (CYP2C8), m/z 287 > 89 for 5-hydroxytolbutamide (CYP2C9), m/z 362 > 214 for 4-hydroxyomeprazole (CYP2C9), m/z 258 > 157 for dextrorphan (CYP2D6), m/z 184 > 120 for 6-hydroxychlorzoxazone (CYP2E1), m/z 342 > 203 for 1′-hydroxymidazolam (CYP3A), and m/z 295 > 100 for trimipramine (IS) [23, 24].

CYP1A2 = biological target: T3, CYP1A2 (Homo sapiens, UniProt P05177); assay: CYP1A2-mediated phenacetin O-deethylase (POD) activity in pooled human liver microsomes
T3 sequence (P05177 1-516): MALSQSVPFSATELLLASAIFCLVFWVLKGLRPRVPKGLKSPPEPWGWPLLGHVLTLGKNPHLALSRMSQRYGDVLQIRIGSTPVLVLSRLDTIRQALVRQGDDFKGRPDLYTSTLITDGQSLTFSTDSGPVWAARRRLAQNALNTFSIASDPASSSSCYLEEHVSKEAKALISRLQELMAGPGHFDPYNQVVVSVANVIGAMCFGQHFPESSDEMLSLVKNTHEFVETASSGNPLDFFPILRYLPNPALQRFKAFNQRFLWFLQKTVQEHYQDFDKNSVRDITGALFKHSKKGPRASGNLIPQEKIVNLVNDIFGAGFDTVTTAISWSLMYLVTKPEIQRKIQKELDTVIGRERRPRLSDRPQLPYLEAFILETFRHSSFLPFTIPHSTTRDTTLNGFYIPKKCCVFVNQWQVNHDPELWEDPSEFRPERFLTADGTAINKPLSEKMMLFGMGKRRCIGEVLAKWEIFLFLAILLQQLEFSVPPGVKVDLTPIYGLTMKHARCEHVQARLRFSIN
Method: (§1) The inhibitory potential of five major bioactive compounds from Cassiae semen against CYP1A2-mediated phenacetin O-deethylase (POD) activity was evaluated using previously developed methods with minor modifications. Briefly, the compounds were dissolved in methanol. The incubation mixtures containing pHLMs (0.25 mg/mL), phenacetin (100 µM), and inhibitor (0, 0.5, 2, 5, 20, or 50 µM) were pre-incubated at 37 °C for 5 min. An NADPH-generating system (NGS, 1.3 mM β-NADP^+, 3.3 mM G6P, 1.0 U/mL G6PDH, and 3.3 mM magnesium chloride) was introduced after pre-incubation to initiate the reaction, and further incubated for 15 min. The reaction was quenched by the addition of 50 µL ice-cold acetonitrile containing internal standard (IS; 7nM trimipramine). Aliquots of supernatants were analyzed by liquid chromatography–tandem mass spectrometry (LC-MS/MS, LCMS 8060 system, Shimadzu, Kyoto, Japan). All microsomal incubations were repeated three times.
(§2) The inhibitory potential of obtusifolin against the biotransformation of eight P450 probe substrates was examined using previously reported methods with slight changes. The following P450 isoform-specific substrates were used: coumarin (CYP2A6); bupropion (CYP2B6); amodiaquine (CYP2C8); tolbutamide (CYP2C9); omeprazole (CYP2C19); dextromethorphan (CYP2D6); chlorzoxazone (CYP2E1); and midazolam (CYP3A). Mixtures of pooled HLM, P450 substrates, and obtusifolin (0, 0.05, 0.2, 0.5, 2, 5, or 10 µM for CYP1A2; and 0, 0.5, 2, 5, 20, or 50 µM for the other P450 isoforms) were pre-incubated (5 min, 37 °C). NGS was introduced to start the reaction, which was followed by an additional incubation (15 min). Following reaction termination, aliquots of the supernatants were analyzed with LC-MS/MS.
(§3) Reverse phase column (Kinetex XB-C18, 100 × 2.10 mm; Phenomenex, Torrance, CA, USA) and triple-quadrupole mass spectrometer (LCMS 8060, Shimadzu, Kyoto, Japan) with an ultra high-performance LC system (Nexera X2, Shimadzu) analyze all the metabolites. Mobile phases were 0.1% formic acid in water (A) and 0.1% formic acid in acetonitrile (B). The elution condition was as follows: 0–0.5 min (B: 8%), 0.5–5 min (B: 8%→60%), 5–6 min (B: 60%), 6–6.1 min (B: 60%→8%), and 6.1–10 min (B: 8%) for the analysis of metabolites of the nine P450 substrates; and 0–1 min (B: 5%), 1–5 min (B: 5%→90%), and 5.1–7 min (B: 90%→5%) for the analysis of resorufin. Electrospray ionization was performed in the positive- and negative-ion modes at 4.0 and −3.5 kV, respectively. For each metabolite, quantitation was carried out in selected reaction monitoring (SRM) mode using the following precursor-to-product ion transition: m/z 152 > 110 for acetaminophen (CYP1A2), m/z 214 > 186 for resorufin (CYP1A1 and CYP1A2), m/z 163 > 107 for 7-hydroxycoumarin (CYP2A6), m/z 256 > 238 for 6-hydroxybupropion (CYP2B6), m/z 328 > 283 for N-desethylamodiaquine (CYP2C8), m/z 287 > 89 for 5-hydroxytolbutamide (CYP2C9), m/z 362 > 214 for 4-hydroxyomeprazole ([…]), m/z 258 > 157 for dextrorphan (CYP2D6), m/z 184 > 120 for 6-hydroxychlorzoxazone (CYP2E1), m/z 342 > 203 for 1′-hydroxymidazolam (CYP3A), and m/z 295 > 100 for trimipramine (IS).
(§4) WinNonlin software (Pharsight, Mountain View, CA, USA) was used to calculate IC50 values. Based on Lineweaver–Burk double reciprocal plots, secondary plots of Lineweaver–Burk plots versus obtusifolin concentrations, and visual inspection of Dixon plots, the type of inhibition and apparent kinetic parameters for inhibitory activity (Ki) were estimated.

[1] = biological target: T4, CYP1A2 versus CYP2A6, CYP2B6, CYP2C8, CYP2C9, CYP2C19, CYP2D6, CYP2E1, CYP3A (Homo sapiens, UniProt P05177); assay: as above; settings: human, pooled human liver microsomes
T4 sequence (P05177 1-516): T3 sequence (P05177 1-516)
Method: as §1, §2, §3, §4

## COc1c(O)c(C)cc2c1C(=O)c1c(O)cccc1C2=O [Obtusifolin, obtusifolin]
rCYP1A1
  IC50: > 10 µM
CYP2E1
  IC50: > 50 µM
CYP2E1; human, microsomes
  inhibition at 15 min, 0.5 µM: 30.7%
CYP1A2
  IC50: 0.19 ± 0.01 µM
CYP1A2; human, pooled human liver microsomes, probe phenacetin (100 µM)
  inhibition at 15 min, 0.5 µM: 73.3%
[1]
  selectivity ratio at 15 min: > 150
